Results on 23 compounds are retold here after patent US20200399238A1, “THERAPEUTIC AURONES” (MIDDLE TENNESSEE STATE UNIVERSITY, priority 2016, published 2020).

Data set [1] has as its system Trypanosoma brucei brucei 427 cells. Nature of the data set: T. brucei culture and assay (PrestoBlue). In kind it is cell-based. As to conditions: for IC50: Trypanosoma brucei.
Data set [2] has as its system Trypanosoma cruzi Tulahuen cells expressing beta-galactosidase. In words: T. cruzi intracellular assay (beta-galactosidase, L6 host cells). To be noted: for IC50: Trypanosoma cruzi, TULAHUEN
Protocol: Trypanosoma cruzi Tulahuen cells expressing beta-galactosidase (Buckner et al., Antimicrob. Agents Chemother. 40 (1996) 2592-2597) were cultured using the L6 cell line as a host cell. Adherent L6 cultures were infected with freshly burst T. cruzi trypomastigotes. Approximately 4-6 days later freshly burst trypomastigotes were collected and used to maintain cultures For assays, trypomastigotes were centrifuged to a loose pellet and incubated for 3 hours to allow the trypomastigote forms to swim out of the pellet. Cells were adjusted for addition to intracellular or extracellular assays. […] For intracellular assays, cells were added to adherent L6 cells using an infection ratio of 1:1 and immediately treated with compounds. At 96 hours incubations, a solution containing chlorophenol-red-B-D-beta-galactopyranosidase (Sigma) and a lysis agent were added. After an additional 2 hour incubation, a spectrophotometer was used to quantify the resulting color change (or lack thereof) which was used to calculate inhibition.
The percentage of cell inhibition was calculated using the formula: Percent Inhibition=1−((Treated Sample value−Medium only value)/(Untreated value−Medium only value))×100. Results are expressed as the mean of two or more independent trials.
In data set [3] the test system is Leishmania amazonensis promastigotes expressing beta-lactamase. In words: microbe, parasite or virus in culture. Type of data set: cell-based. As to conditions: for IC50: Leishmania amazonensis, read-out: IC50 L. amaz.
Data set [4] deals with rat skeletal muscle cell line, L6. Nature of the data set: cells. Type of data set: cell-based.
The test system of data set [5] is C. albicans (ATCC strain 90028). In words: Antifungal microdilution broth assay (PrestoBlue), C. albicans. In kind it is cell-based, Candida albicans. As to conditions: Candida albicans, 100 μM. On the procedure:
Sigma-Aldrich) was used as the base medium for testing. […] solution of morpholinepropanesulfonic acid (MOPS; Sigma-Aldrich) was added to the RPMI to a final concentration of 0.165 M for buffering (RPMI-MOPS). This medium was adjusted to a pH of 7.0 with 10 M NaOH and filter sterilized. C. albicans (ATCC strain 90028), C. [NT] strain 66032), and C. tropicalis (ATCC strain 750) were cultured on potato dextrose agar (Sigma-Aldrich) plates, and incubated at 35° C. for 24 hours. For antifungal testing, overnight colonies were adjusted to 1.5×10^3 cells/mL, hereafter referred to as the test inoculum. PrestoBlue® (Life Technologies, Invitrogen, Carlsbad, Calif.), a resazurin-based cell viability reagent that, in metabolically active cells, is reduced from blue, non-fluorescent resazurin, to red, fluorescent resorufin, was used to assess inhibition of yeast growth by the aurones. […] Following addition of aurone, plates were then incubated for 24 hours at 35° C. PrestoBlue was added to a final concentration of 10% in each well and fluorescence read at 560 nm excitation and 590 nm emission, per manufacturer instructions, using a SpectraMax M2e spectrophotometer (Molecular Devices, LLC, Sunnyvale, Calif.). To optimize the PrestoBlue reduction time, RFUs were collected at 15 minute intervals for 4 hours using a reference antifungal. […] IC50 determination was calculated using GraphPad Prism version 7.01 for Windows (GraphPad Software, Inc., La Jolla, Calif.) from the RFUs at dilution points. Calculations were made with a nonlinear regression after transforming the molar concentrations of the aurones into the logarithmic form. Graphing was accomplished utilizing the same program following a four parameter curve fitting sigmoidal plot of the data. All aurones and controls were tested in triplicate and all testing was repeated in at least three independent experiments.
(In general: In broth dilution the organism is exposed to a series of concentrations in liquid medium.)

Where [6] appears, read: Table 1, mean of 2(+) independent trials, read-out: IC50 T. brucei.
[7] abbreviates: Rattus norvegicus, Table 1, read-out: IC50 Toxicity (L6).
Setting [8] is: read-out: IC50 T. cruzi, Table 1, intracellular assay, mean of 2(+) trials (^c one trial).
The mark [9] stands for this setting: read-out: IC50 T. cruzi, Table 2, intracellular assay, mean of 2(+) independent trials.
The mark [10] stands for this setting: Table 3B, estimated from highest L6 dose tested where no L6 IC50.
The mark [11] stands for this setting: Table 1, intracellular T. cruzi IC50.
The mark [12] stands for this setting: Rattus norvegicus, Table 3A, weighted means of two or more independent trials, read-out: IC50 L6.
[13] abbreviates: read-out: IC50 TC-I, Table 3A, weighted means of two or more independent trials.
The mark [14] stands for this setting: ATCC90028, Table 4B, C. albicans, value ± spread, read-out: Percent Inhibition (at 100 μM).
Where [15] appears, read: ATCC90028, Table 4A, read-out: C. albicans inhibition (at 100 μM).

Molecules are shown by their SMILES. Where two headings read alike, the source gives them in different places.

By IC50 is commonly meant the concentration needed to halve the response being measured. The term melting point denotes the temperature, or range, at which the solid turns liquid. Broadly, the inhibition is the drop in the measured response relative to a control, in per cent.

On to `Cc1ccc(/C=C2\Oc3ccccc3C2=O)cc1` [Aurone 8c, (Z)-2-(4-methylbenzylidene)benzofuran-3(2H)-one], for which the melting point lay in the range of 75 to 76 °C. In addition, the IC50 in data set [1] (read-out: T. brucei IC50 dose) was over 50 µM. Besides, in data set [2], the “activity against T. cruzi” value is listed as “effective against T. cruzi only”. Further, in data set [2] (read-out: T. cruzi IC50 dose), the IC50 is under 10 µM.
`O=C1/C(=C/c2cccs2)Oc2c1ccc(O)c2O` [Aurone 1001, (Z)-6,7-dihydroxy-2-(thiophen-2-ylmethylene)benzofuran-3(2H)-one] had a melting point of 168 to 170 °C. Also, the IC50 in data set [1] (setting [6]) came to 25.3 µM. The IC50 in data set [3] came to 22.9 µM. In addition, the IC50 in data set [4] (setting [7]) was found to be 50.6 µM. Moreover, the IC50 in data set [2] (setting [8]) was over 50 µM.
For `O=C1/C(=C/c2cccs2)Oc2cc(O)ccc21` [Aurone 2901, (Z)-6-hydroxy-2-(thiophen-2-ylmethylene)benzofuran-3(2H)-one] the same measures were 300 to 303 °C, over 50 µM, 19.4 µM, over 100 µM and over 50 µM.
For the compound `Cc1ccc(/C=C2\Oc3cc(O)ccc3C2=O)cc1` [Aurone 2904, (Z)-6-hydroxy-2-(4-methylbenzylidene)benzofuran-3(2H)-one], the melting point lay in the range of 258 to 264 °C. The IC50 in data set [1] (setting [6]) is over 50 µM. In addition, in data set [3], the IC50 is 5.63 µM. Further, the IC50 in data set [4] (setting [7]) came to 70.3 µM. Besides, the IC50 in data set [2] (setting [8]) was over 50 µM. In data set [2] (setting [9]), the IC50 is over 50 µM.
`O=C1/C(=C/c2cc3ccccc3o2)Oc2ccccc21` [Aurone 3002, (Z)-2-(benzofuran-2-ylmethylene)benzofuran-3(2H)-one] had a melting point of 145 to 150 °C. Moreover, the “Selectivity L6/Tb” value in data set [1] (Table 1) is over 4.96. Besides, the “Selectivity L6/Tb” value in data set [1] (Table 2, L6 IC50 / T. brucei IC50) is over 4.96. The “Selectivity L6/Tb” value in data set [1] (setting [10]) is given as over 4.96. For the same compound, the IC50 in data set [1] (setting [6]) was 20.2 µM. Besides, in data set [3], the IC50 came to 6.48 µM. The “Selectivity L6/La” value in data set [3] (Table 1) is over 15.43. For the same compound, in data set [3] (Table 2, L6 IC50 / L. amazonensis IC50), the “Selectivity L6/La” value is over 15.43. In addition, the IC50 in data set [4] (setting [7]) was over 100 µM. For the same compound, the IC50 in data set [4] (Rattus norvegicus, Table 3B, weighted means of two or more independent trials, read-out: IC50 L6) is over 100 µM. Further, the IC50 in data set [4] (Table 2, L6 mammalian cells, read-out: IC50 Toxicity (L6)) was over 100 µM. In data set [2] (setting [11]), the “Selectivity L6/Tc” value is over 15.53. In addition, the “Selectivity L6/Tc” value in data set [2] (Table 2, L6 IC50 / T. cruzi IC50 (intracellular assay)) is given as over 15.53. In data set [2] (setting [10]), the “Selectivity L6/Tc-I” value was over 15.53. In data set [2] (setting [8]), the IC50 is 6.44 µM. The IC50 in data set [2] (setting [9]) was 6.44 µM. Moreover, the IC50 in data set [2] (read-out: IC50 TC-I, Table 3B, weighted means of two or more independent trials) was 6.44 µM.
`O=C1/C(=C/c2cc(Br)ccc2Br)Oc2ccccc21` [Aurone 3003, (Z)-2-(2,5-dibromobenzylidene)benzofuran-3(2H)-one]: the melting point was in the range of 181 to 182 °C. The IC50 in data set [1] (setting [6]) is over 50 µM. In addition, the IC50 in data set [3] turned out to be 16 µM. The “Selectivity L6/La” value in data set [3] (Table 1) was over 6.24. Besides, the 50% inhibitory concentration (IC50) in data set [4] (setting [7]) is over 100 µM. Further, the IC50 in data set [4] (setting [12]) is over 100 µM. Further, the IC50 in data set [2] (setting [8]) was over 50 µM. Moreover, the IC50 in data set [2] (setting [13]) was over 50 µM.
`COc1cc(OC)c2c(c1)O/C(=C\c1ccc(C)cc1)C2=O` [Aurone 7000, (Z)-4,6 dimethoxy-2-(4-methylbenzalidene) benzofuran-3(2H)-one] returned a melting point of 145 to 148 °C.
Compound `O=C1/C(=C/c2ccccc2I)Oc2ccccc21` [Aurone 9003, (Z)-2-(2-iodobenzylidene)benzofuran-3(2H)-one] came in with a melting point of 145 to 148 °C. The IC50 in data set [1] (setting [6]) is over 50 µM. Further, the IC50 in data set [4] (setting [7]) is over 100 µM. In addition, in data set [4] (setting [12]), the IC50 was over 100 µM. In data set [2] (setting [11]), the “Selectivity L6/Tc” value is listed as over 6.50. Moreover, in data set [2] (Table 3A, estimated from highest L6 dose tested where no L6 IC50), the “Selectivity L6/TC-I” value is on record as over 6.50. In addition, the IC50 in data set [2] (setting [8]) is 15.4 µM. The half-inhibitory concentration (IC50) in data set [2] (setting [13]) is 15.4 µM.
As for `COc1cc(/C=C2\Oc3ccccc3C2=O)ccc1O` [Aurone 9053, (Z)-2-(4-hydroxy-3-methoxybenzylidene)benzofuran-3(2H)-one], the IC50 in data set [1] (setting [6]) is over 50 µM; in data set [3], 2.15 µM; in data set [4] (setting [7]) it was over 200 µM; in data set [2] (setting [8]), over 50 µM; in data set [2] (setting [9]), over 50 µM. In addition, the inhibition at 100 µM in data set [5] (setting [14]) was 11.2 ± 2.2%.
For `COc1cccc(/C=C2\Oc3ccccc3C2=O)c1O` [Aurone 9055, (Z)-2-(2-hydroxy-3-methoxybenzylidene)benzofuran-3(2H)-one], the IC50 in data set [1] (setting [6]) is over 50 µM; in data set [3], 18.5 µM; in data set [4] (setting [7]), over 100 µM; in data set [2] (setting [8]) it was over 50 µM. The inhibition at 100 µM in data set [5] (setting [14]) worked out at 16.7 ± 0.2%.
Take `COc1ccc(/C=C2\Oc3ccccc3C2=O)cc1O` [Aurone 9078, (Z)-2-(3-hydroxy-4-methoxybenzylidene)benzofuran-3(2H)-one]: the IC50 in data set [1] (setting [6]) was determined as 41.2 µM; in data set [3], 1.45 µM; in data set [4] (setting [7]), 70.7 µM. Also, the inhibition at 100 µM in data set [5] (setting [14]) came out at 45.6 ± 2.6%.
For `COc1cc(/C=C2\Oc3ccccc3C2=O)ccc1O` [Sample 9053], the IC50 in data set [4] (setting [12]) was over 200 µM; in data set [2] (setting [13]), over 50 µM. The inhibition at 100 µM in data set [5] (setting [15]) turned out to be 11.2%.
The corresponding values for `COc1cccc(/C=C2\Oc3ccccc3C2=O)c1O` [Sample 9055] are over 100 µM, over 50 µM and 16.7%.
The corresponding values for `COc1cc(Br)c(/C=C2\Oc3ccccc3C2=O)cc1OC` [Sample 9056] are over 100 µM, 36 µM and 12.5%.
As for `Cc1ccccc1/C=C1\Oc2ccccc2C1=O` [Sample 9057], the IC50 in data set [4] (setting [12]) was 99.6 µM; in data set [2] (setting [13]), 26.3 µM. For the same compound, in data set [5] (setting [15]), the inhibition at 100 µM amounted to 33.6%.
Consider `Cc1cccc(/C=C2\Oc3ccccc3C2=O)c1` [Sample 9064], for which the half-inhibitory concentration (IC50) was 79.9 µM in data set [4] (setting [12]) and 37.9 µM in data set [2] (setting [13]). Moreover, the inhibition at 100 µM in data set [5] (setting [15]) was 32.1%.
Consider `O=C1/C(=C/c2ccc(O)cc2)Oc2ccccc21` [Sample 9068], for which the IC50 is over 100 µM in data set [4] (setting [12]) and over 50 µM in data set [2] (setting [13]). In data set [5] (setting [15]), the inhibition at 100 µM was found to be 11.1%.
In the case of `N#Cc1cccc(/C=C2\Oc3ccccc3C2=O)c1` [Sample 9070], the IC50 in data set [4] (setting [12]) is over 200 µM; in data set [2] (setting [13]) it was 16.7 µM. The inhibition at 100 µM in data set [5] (setting [15]) stood at 14.7%.
For `O=C1/C(=C/c2ccc(C(F)(F)F)cc2)Oc2ccccc21` [Sample 9084] the same measures were over 400 µM, 9.38 µM and 17.6%.
The corresponding values for `O=C1/C(=C/c2cccc(C(F)(F)F)c2)Oc2ccccc21` [Sample 9085] are 73.4 µM, 11.1 µM and 20.2%.
For `O=C1/C(=C/c2ccccc2C(F)(F)F)Oc2ccccc21` [Sample 9086] the same measures were 130 µM, 18.5 µM and 14.3%.
Regarding `CN(C)c1ccc(/C=C2\Oc3ccccc3C2=O)cc1` [Sample 9087], the IC50 stood at 144 µM in data set [4] (Rattus norvegicus, Table 3C, weighted means of two or more independent trials, read-out: IC50 L6) and 5.38 µM in data set [2] (read-out: IC50 TC-I, Table 3C, intracellular T. cruzi, weighted means of two or more independent trials). Further, in data set [5] (setting [15]), the inhibition at 100 µM came out at 31.2%.
Consider `O=C1/C(=C/c2ccccc2O)Oc2ccccc21` [Sample 9088], for which the results for the IC50 in data set [4] (setting [12]) and in data set [2] (setting [13]) were over 100 µM and 18.4 µM, respectively. Further, the inhibition at 100 µM in data set [5] (setting [15]) amounted to 1%.
